Data on ten compounds can be found in US20250009886A1, “COMPOSITIONS FOR SMALL MOLECULE THERAPEUTIC AGENT COMPOUNDS” (Delpor, Inc., priority 2016, published 2025).

By Solubility is commonly meant how much of the substance goes into solution per volume.

Data set [1] can be described thus: In vitro release of risperidone from devices loaded with various risperidone addition salts (Example 5). It counts as physicochemical. The conditions noted are these: for Percent Risperidone Released at Day 15: cumulative percent of total risperidone released from device, two-fold molar excess of acid, PBS, 37° C., 15 days; for cumulative in vitro release of risperidone after 15 days (percent of total loaded drug): device in 100 mL PBS at 37° C., risperidone salt with two-fold molar excess of acid.

The conditions of data set [2]: cited from earlier work; for Solubility: of the organic acid.

≈ marks a conversion by molar mass, not a printed value.

Turning to `O=C(O)CCc1ccc(O)cc1` [Hydroxyphenylpropionic acid, 3-(4-hydroxyphenyl) propionic acid], in data set [1], the “Percent Risperidone Released at Day 15” value stood at 92% and the “cumulative in vitro release of risperidone after 15 days (percent of total loaded drug)” value (“cumulative … (percent of total loaded drug)” below) was 92%.

Regarding `O=C(O)c1ccc(C(=O)O)cc1` [Terephthalic acid], in data set [1], the “Percent Risperidone Released at Day 15” value stood at 2.6% and the “cumulative … (percent of total loaded drug)” value is recorded as 2.6%.

`O=C(O)C(O)c1ccccc1` (racemic) [rac-Mandelic]: the Solubility in data set [2] was 158.7 mg/mL (≈ 1040 mM).

Take `O=c1[nH]c(=O)c2[nH]c(=O)[nH]c2[nH]1` [Uric acid]: in data set [1], the “Percent Risperidone Released at Day 15” value was determined as 16% and the “cumulative … (percent of total loaded drug)” value is 16%.

Consider `O=C(O)CNC(=O)c1ccccc1` [Hippuric acid], for which, in data set [1], the “Percent Risperidone Released at Day 15” value stood at 94% and the “cumulative … (percent of total loaded drug)” value stood at 94%.

`O=C(O)CCCCCCCCC(=O)O` [Sebacic acid, sebacic acid]: the “Percent Risperidone Released at Day 15” value in data set [1] is 55%.

As for `O=C(O)/C=C/c1ccc(O)cc1` [p-Coumaric, p-coumaric acid], the Solubility in data set [2] was 1 to 10 mg/mL.

As to `COc1cc(C(=O)O)ccc1O` [Vinallic acid, vanillic acid], in data set [1], the “Percent Risperidone Released at Day 15” value is given as 55%.

In the case of `Cc1nc2n(c(=O)c1CCN1CCC(c3noc4cc(F)ccc34)CC1)CCCC2` [Risperidone, risperidone, reference compound], the insolubility in water in data set [2] (neutral free base, 20-25° C.) is reported as > 10000 volumes of water per volume of drug.

Regarding `Nc1ccc(C(=O)O)cc1` [PABA, 4-aminobenzoic acid], the “Percent Risperidone Released at Day 15” value in data set [1] is 45%.
